Data: ChEMBL document CHEMBL1129561 (J Med Chem, 1996)

Molecular target: T1, Androgen receptor (Homo sapiens, UniProt P10275)
T1 sequence (P10275 whole entry): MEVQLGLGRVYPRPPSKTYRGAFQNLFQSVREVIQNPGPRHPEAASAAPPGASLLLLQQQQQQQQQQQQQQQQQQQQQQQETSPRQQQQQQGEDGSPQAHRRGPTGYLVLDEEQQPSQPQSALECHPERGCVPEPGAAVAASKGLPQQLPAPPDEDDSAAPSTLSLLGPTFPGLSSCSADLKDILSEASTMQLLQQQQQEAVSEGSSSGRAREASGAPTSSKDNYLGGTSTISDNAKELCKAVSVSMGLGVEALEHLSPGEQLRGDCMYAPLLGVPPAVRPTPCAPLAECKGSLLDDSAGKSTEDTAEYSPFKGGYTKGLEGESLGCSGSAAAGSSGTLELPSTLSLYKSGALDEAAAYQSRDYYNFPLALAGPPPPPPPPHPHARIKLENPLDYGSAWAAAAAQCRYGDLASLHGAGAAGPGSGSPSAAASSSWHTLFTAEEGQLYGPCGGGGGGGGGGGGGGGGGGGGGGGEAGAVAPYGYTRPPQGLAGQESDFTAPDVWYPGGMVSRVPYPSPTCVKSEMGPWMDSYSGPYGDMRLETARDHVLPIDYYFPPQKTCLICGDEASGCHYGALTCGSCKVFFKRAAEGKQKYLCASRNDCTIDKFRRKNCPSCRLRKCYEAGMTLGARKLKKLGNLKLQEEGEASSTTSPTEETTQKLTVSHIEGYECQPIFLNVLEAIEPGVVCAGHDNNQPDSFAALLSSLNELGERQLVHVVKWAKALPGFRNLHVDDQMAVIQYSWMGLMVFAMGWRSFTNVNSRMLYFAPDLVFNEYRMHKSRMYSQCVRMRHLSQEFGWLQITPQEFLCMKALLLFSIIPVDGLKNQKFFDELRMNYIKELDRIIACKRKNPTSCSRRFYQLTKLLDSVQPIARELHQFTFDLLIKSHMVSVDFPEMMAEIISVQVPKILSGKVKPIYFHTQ
Description: Inhibitory activity against human Androgen receptor

Molecule `C=C1C=C(C)CC(C)(C)C1Cc1ccc([N+](=O)[O-])cc1` (stereo unspecified) has an IC50 of 250 nM.
